Series [1] addresses T1, Rho-associated protein kinase 2 (Homo sapiens, UniProt O75116). Nature of the series: Inhibition of ROCK2.
The nature of series [2]: Inhibition of PKA.
Series [3] in a line: Selectivity for ROCK2 over PKA.
The target of series [4] is T1, Rho-associated protein kinase 2.
Description: Inhibition of ROCK2 assessed as myosin light chain phosphorylation by cell-based assay
Series [5] in a line: Metabolic stability in human liver microsomes assessed as half life. Format: ADME, Microsome. For orientation: Liver microsomes are a subcellular fraction often used to study metabolism.
Series [6] deals with Rho-associated protein kinase 1 (Homo sapiens, UniProt Q13464). Nature of the series: Inhibition of ROCK1.
Rho-associated protein kinase 1, sequence (Q13464 whole entry): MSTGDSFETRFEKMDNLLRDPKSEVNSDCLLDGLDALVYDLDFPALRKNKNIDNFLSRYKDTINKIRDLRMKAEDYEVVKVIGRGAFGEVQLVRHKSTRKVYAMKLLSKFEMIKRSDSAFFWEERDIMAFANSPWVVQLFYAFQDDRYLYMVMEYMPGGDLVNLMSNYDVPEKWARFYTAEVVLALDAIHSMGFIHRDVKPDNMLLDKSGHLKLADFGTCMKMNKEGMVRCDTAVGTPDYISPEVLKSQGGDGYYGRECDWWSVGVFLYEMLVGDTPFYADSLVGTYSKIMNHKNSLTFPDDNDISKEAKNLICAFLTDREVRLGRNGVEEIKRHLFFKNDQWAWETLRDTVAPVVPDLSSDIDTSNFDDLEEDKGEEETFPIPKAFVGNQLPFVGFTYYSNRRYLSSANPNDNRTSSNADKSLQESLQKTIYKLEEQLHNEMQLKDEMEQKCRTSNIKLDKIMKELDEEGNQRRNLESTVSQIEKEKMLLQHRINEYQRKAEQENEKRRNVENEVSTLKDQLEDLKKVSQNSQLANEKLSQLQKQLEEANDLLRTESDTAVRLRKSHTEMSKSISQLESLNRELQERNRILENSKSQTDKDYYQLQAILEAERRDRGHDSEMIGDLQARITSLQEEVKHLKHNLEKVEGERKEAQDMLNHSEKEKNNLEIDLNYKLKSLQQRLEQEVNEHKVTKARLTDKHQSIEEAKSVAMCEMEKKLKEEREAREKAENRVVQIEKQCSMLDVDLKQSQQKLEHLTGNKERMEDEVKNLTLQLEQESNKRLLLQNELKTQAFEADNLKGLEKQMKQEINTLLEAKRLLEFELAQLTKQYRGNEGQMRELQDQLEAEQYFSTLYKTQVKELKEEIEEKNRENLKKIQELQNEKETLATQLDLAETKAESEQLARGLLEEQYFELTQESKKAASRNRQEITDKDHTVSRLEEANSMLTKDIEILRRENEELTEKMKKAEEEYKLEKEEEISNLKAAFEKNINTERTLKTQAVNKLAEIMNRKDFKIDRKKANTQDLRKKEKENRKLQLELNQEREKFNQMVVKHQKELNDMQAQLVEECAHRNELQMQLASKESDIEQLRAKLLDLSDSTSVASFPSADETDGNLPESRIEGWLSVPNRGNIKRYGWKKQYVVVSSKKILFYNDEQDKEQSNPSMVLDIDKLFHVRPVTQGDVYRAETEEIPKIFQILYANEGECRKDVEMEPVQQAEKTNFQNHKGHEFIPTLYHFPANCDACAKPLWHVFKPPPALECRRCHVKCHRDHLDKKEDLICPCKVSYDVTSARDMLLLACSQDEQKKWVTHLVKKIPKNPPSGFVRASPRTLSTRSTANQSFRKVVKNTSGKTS
Series [7] deals with Serine/threonine-protein kinase MRCK alpha (Homo sapiens, UniProt Q5VT25). Description: Inhibition of MRCKalpha.
Serine/threonine-protein kinase MRCK alpha, sequence (Q5VT25 whole entry): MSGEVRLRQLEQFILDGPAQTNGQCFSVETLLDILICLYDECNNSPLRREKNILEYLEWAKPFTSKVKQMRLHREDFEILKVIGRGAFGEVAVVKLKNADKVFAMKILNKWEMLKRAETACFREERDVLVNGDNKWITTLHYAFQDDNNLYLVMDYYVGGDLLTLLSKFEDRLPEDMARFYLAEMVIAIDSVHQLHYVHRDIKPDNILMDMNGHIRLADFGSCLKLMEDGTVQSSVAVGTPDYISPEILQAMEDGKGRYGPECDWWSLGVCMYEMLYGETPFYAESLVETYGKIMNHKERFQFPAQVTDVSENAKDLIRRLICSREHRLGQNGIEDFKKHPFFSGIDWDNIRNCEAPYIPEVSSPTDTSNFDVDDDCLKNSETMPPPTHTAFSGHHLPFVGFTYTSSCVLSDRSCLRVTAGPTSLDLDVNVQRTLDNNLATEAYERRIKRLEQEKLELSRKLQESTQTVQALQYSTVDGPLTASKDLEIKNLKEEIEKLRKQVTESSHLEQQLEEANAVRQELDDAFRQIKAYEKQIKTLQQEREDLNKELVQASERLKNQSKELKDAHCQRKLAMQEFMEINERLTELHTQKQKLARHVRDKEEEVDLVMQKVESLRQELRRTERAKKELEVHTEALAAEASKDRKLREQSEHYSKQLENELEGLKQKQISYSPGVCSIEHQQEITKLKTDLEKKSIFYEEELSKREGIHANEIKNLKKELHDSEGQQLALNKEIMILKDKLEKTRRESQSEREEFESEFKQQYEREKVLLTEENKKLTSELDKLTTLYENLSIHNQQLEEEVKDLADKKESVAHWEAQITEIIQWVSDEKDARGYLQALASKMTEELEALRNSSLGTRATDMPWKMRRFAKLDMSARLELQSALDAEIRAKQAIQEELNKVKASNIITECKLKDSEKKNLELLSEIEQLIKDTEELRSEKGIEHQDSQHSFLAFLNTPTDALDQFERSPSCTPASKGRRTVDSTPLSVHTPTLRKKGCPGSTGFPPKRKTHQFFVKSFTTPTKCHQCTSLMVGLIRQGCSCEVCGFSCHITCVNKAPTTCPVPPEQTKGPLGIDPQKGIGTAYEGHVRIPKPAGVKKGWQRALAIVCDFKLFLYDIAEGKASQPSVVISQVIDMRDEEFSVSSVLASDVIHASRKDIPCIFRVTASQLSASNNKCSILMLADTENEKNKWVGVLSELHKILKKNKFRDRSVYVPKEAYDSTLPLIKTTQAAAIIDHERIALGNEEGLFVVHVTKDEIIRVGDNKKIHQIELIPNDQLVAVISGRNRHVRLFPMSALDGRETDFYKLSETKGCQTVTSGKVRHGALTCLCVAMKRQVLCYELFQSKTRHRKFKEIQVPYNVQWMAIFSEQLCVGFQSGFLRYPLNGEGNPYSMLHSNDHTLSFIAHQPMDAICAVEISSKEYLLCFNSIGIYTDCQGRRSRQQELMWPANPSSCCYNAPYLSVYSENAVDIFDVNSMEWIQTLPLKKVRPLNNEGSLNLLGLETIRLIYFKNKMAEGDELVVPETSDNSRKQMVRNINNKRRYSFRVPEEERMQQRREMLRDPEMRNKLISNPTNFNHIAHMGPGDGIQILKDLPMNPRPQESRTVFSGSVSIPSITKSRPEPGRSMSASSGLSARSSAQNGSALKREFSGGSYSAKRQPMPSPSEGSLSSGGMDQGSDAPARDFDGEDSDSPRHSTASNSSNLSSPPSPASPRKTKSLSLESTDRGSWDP
The target in series [8] is Mitogen-activated protein kinase 10 (Homo sapiens, UniProt P53779). Nature of the series: Inhibition of JNK3.
Mitogen-activated protein kinase 10, sequence (P53779 whole entry): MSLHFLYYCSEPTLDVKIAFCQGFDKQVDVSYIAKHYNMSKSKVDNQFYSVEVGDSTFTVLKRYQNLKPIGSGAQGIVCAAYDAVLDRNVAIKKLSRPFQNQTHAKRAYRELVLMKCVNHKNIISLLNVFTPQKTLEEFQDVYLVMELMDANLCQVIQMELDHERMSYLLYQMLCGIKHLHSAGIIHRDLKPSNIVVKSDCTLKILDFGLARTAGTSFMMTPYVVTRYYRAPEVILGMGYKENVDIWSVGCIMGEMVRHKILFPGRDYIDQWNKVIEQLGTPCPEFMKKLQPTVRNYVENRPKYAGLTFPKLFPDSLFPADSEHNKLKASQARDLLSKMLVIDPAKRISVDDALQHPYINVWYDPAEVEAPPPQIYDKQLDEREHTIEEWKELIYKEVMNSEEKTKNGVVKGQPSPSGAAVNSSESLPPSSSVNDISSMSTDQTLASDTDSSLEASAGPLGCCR
Series [9] in a line: Inhibition of p38.
Series [10] in a line: Oral bioavailability in rat. Format: ADME, organism-based. Particulars: in vivo.
A short description of series [11]: Clearance in rat. It is filed as ADME, organism-based. Particulars: in vivo.
Series [12] in a line: Metabolic stability in rat liver microsomes assessed as half life. Format: ADME, Microsome.

27 compounds from ChEMBL document CHEMBL1154368, “Benzothiazoles as Rho-associated kinase (ROCK-II) inhibitors” (Bioorg Med Chem Lett, 2009) can be followed below.

T1 sequence (O75116 whole entry): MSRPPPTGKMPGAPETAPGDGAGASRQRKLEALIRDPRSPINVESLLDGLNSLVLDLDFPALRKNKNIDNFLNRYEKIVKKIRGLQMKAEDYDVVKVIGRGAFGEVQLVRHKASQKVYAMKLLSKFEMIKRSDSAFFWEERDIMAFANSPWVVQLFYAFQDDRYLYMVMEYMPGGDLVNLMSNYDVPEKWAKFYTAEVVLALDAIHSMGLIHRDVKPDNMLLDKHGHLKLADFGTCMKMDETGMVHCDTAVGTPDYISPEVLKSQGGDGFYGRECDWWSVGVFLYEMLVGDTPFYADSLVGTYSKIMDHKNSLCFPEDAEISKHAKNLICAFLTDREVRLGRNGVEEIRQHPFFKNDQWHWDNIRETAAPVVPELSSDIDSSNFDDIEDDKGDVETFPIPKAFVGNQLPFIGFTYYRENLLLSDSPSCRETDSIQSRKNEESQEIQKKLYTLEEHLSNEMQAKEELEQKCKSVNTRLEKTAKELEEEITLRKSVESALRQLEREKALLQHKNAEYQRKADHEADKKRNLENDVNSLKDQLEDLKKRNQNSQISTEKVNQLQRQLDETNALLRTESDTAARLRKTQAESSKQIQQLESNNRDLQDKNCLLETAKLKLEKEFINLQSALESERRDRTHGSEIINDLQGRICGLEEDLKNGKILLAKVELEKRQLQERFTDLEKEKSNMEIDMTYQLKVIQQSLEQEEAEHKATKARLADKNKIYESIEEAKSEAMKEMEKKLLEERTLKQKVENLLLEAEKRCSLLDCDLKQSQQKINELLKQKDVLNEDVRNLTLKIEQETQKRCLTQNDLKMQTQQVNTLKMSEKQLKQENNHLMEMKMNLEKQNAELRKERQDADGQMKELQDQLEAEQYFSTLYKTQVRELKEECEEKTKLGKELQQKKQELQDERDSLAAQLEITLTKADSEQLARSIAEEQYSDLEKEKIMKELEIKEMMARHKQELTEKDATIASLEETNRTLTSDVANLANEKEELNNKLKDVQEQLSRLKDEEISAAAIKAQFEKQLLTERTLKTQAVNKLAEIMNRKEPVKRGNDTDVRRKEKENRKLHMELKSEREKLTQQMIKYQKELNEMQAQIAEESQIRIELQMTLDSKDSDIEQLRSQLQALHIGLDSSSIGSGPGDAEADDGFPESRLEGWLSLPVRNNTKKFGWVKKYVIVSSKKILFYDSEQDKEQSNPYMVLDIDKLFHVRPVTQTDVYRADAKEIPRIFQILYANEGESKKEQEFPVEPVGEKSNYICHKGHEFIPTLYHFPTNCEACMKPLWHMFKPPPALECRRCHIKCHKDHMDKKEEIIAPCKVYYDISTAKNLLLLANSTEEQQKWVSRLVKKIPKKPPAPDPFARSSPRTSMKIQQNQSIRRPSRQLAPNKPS

The term IC50 denotes the concentration at which inhibition is half-maximal. With `O=C(NCc1ccccc1)c1nc2ccc(-c3cn[nH]c3)cc2s1`, the IC50 in [1] is 53 nM; in series [2], 4640 nM.
The corresponding values for `c1ccc2c(c1)CC(c1nc3c(OCCN4CCOCC4)cc(-c4cn[nH]c4)cc3s1)CO2` (centres undefined) are 314 nM and more than 5000 nM.
For `Fc1cc(-c2cn[nH]c2)cc2sc(C3COc4ccccc4C3)nc12` (centres undefined), the Selectivity ratio in series [3] worked out at 43. The 50% inhibitory concentration (IC50) in series [1] was 14 nM; in [2] it was 644 nM; in [4] it was more than 2700 nM.
Taken in the same sequence, the figures for `CN(C)CCOc1cc(-c2cn[nH]c2)cc2sc(C3COc4ccccc4C3)nc12` (centres undefined) were more than 75, 66 nM, more than 5000 nM and 365 nM.
As a reminder, the half-life is the time needed for the level to fall by half in the phase considered. In the case of `CN(C)CCCNC(=O)c1ccc2c(c1)CC(c1nc3ccc(-c4cn[nH]c4)cc3s1)CO2` (centres undefined), the half-life in series [5] was 34 min. For the same compound, in [3], the Selectivity ratio is 847. Also, the 50% inhibitory concentration (IC50) in series [6] is 2 nM; in series [7], 9550 nM; in series [8], 5460 nM; in [9], more than 20000 nM; in series [1], 0.9 nM; in series [2], 765 nM. The compound further gave a 50% inhibitory concentration (IC50) in [4] of less than 4 nM.
With `Fc1cc2nc(C3COc4ccccc4C3)sc2cc1-c1cn[nH]c1` (centres undefined), the concentration for half-maximal inhibition (IC50) in series [1] is 47 nM; in [2] it was 537 nM; in series [4], more than 2700 nM.
For the compound `Cc1ccc2c(c1)CC(c1nc3ccc(-c4cn[nH]c4)cc3s1)CO2` (centres undefined), the IC50 in [1] is 93 nM; in series [2], more than 20000 nM.
For `c1ccc2c(c1)CC(c1nc3ccc(-c4ccncc4)cc3s1)CO2` (centres undefined), the Selectivity ratio in series [3] was 25. The half-maximal inhibitory concentration (IC50) came to 42 nM in [1] and 1100 nM in [2].
Consider `Cc1cc(-c2ccc3nc(C4COc5ccccc5C4)sc3c2)ccn1` (centres undefined), for which the IC50 is 1200 nM in series [1] and 7990 nM in series [2].
With `c1ccc2c(c1)CC(c1nc3ccc(-c4cn[nH]c4)cc3s1)CO2` (centres undefined), the Selectivity ratio in series [3] worked out at 30. For the same compound, the results for the 50% inhibitory concentration (IC50) in series [1], in series [2] and in series [4] were 11 nM, 341 nM and 1550 nM, respectively.
With `COC(=O)c1ccc2c(c1)CC(c1nc3ccc(-c4cn[nH]c4)cc3s1)CO2` (centres undefined), the concentration for half-maximal inhibition (IC50) is 59 nM in series [1], more than 5000 nM in series [2] and 1480 nM in series [4].
Regarding `COc1cccc(CN(C(=O)c2nc3ccc(-c4cn[nH]c4)cc3s2)C2CC2)c1`, the IC50 in series [1] was determined as 94 nM; in series [2], 19600 nM.
As for `COc1cccc(CNC(=O)c2nc3ccc(-c4cn[nH]c4)cc3s2)c1`, in series [3], the Selectivity ratio worked out at 300. Further, the results for the IC50 in series [1], in series [2] and in [4] were 18 nM, 5290 nM and more than 2700 nM, respectively.
On to `COc1ccc2c(c1)CC(c1nc3ccc(-c4cn[nH]c4)cc3s1)CO2` (centres undefined), for which the figures for the IC50 in [1], in [2] and in series [4] were 45 nM, more than 20000 nM and more than 2700 nM, respectively.
As for `CN(C)CCN(C)c1cc(-c2cn[nH]c2)cc2sc(C3COc4ccccc4C3)nc12` (centres undefined), the Selectivity ratio in [3] stood at 12. Further, the IC50 was determined as 51 nM in series [1], 702 nM in series [2] and 365 nM in series [4].
In the case of `O=C(NCc1cccc(F)c1)c1nc2ccc(-c3cn[nH]c3)cc2s1`, the IC50 was 72 nM in series [1] and 2680 nM in series [2].
For orientation: bioavailability means dose-corrected exposure relative to a reference, in per cent. Higher therefore signals much systemic uptake. As a reminder, the clearance is the rate of elimination divided by the concentration. With `COc1cccc(CN(CCN(C)C)C(=O)c2nc3ccc(-c4cn[nH]c4)cc3s2)c1`, in series [5], the half-life was determined as 15 min. Further, the Selectivity ratio in series [3] is more than 100. Moreover, the IC50 was 3.5 nM in series [6]; 247 nM in [7]; 13800 nM in series [8]; more than 20000 nM in series [9]; 0.4 nM in [1]; 45 nM in [2]. In [4], the IC50 is less than 6 nM. Also, in series [10], the bioavailability was found to be 0%. Further, the clearance in series [11] is 50 mL/min/kg.
Turning to `c1ccc2c(c1)CC(c1nc3c(OCCC4CCOC4)cc(-c4cn[nH]c4)cc3s1)CO2` (centres undefined), the results for the IC50 in [1] and in series [2] were 500 nM and more than 5000 nM, respectively.
The corresponding values for `Cc1n[nH]cc1-c1ccc2nc(C3COc4ccccc4C3)sc2c1` (centres undefined) are 25 nM and 404 nM.
With `Fc1ccc2c(c1)CC(c1nc3ccc(-c4cn[nH]c4)cc3s1)CO2` (centres undefined), the IC50 turned out to be 38 nM in [1], 1930 nM in [2] and 1480 nM in series [4].
Consider `Nc1nccc(-c2ccc3nc(C4COc5ccccc5C4)sc3c2)n1` (centres undefined), for which the half-life in series [5] was 47 min; in series [12] it was 23 min. In addition, the Selectivity ratio in [3] is 17. In addition, the figures for the half-maximal inhibitory concentration (IC50) in series [1], in [2] and in [4] were 9 nM, 156 nM and 1500 nM, respectively.
With `Clc1ccc2c(c1)CC(c1nc3ccc(-c4cn[nH]c4)cc3s1)CO2` (centres undefined), the IC50 in series [1] was 75 nM; in series [2] it was 1780 nM.
As to `COCCN(Cc1cccc(OC)c1)C(=O)c1nc2ccc(-c3cn[nH]c3)cc2s1`, the results for the IC50 in series [1], in series [2] and in series [4] were 10 nM, more than 20000 nM and 871 nM, respectively.
For `CCN(Cc1cccc(OC)c1)C(=O)c1nc2ccc(-c3cn[nH]c3)cc2s1`, the IC50 is 180 nM in series [6]; 7860 nM in series [7]; more than 20000 nM in [8]; more than 20000 nM in [9]; 26 nM in [1]; 16300 nM in series [2]. The same compound came in with a 50% inhibitory concentration (IC50) in series [4] of 455 nM.
Consider `COc1cccc(CN(C)C(=O)c2nc3ccc(-c4cn[nH]c4)cc3s2)c1`, for which the half-maximal inhibitory concentration (IC50) was 59 nM in series [1] and more than 20000 nM in series [2].
On to `CN(C)CCNC(=O)c1ccc2c(c1)CC(c1nc3ccc(-c4cn[nH]c4)cc3s1)CO2` (centres undefined), for which the half-life in series [5] worked out at 35 min. Also, the Selectivity ratio in [3] turned out to be 83. Besides, the figures for the IC50 in [1], in series [2] and in series [4] were 7 nM, 582 nM and 20 nM, respectively.
For `COc1cc(-c2cn[nH]c2)cc2sc(C3COc4ccccc4C3)nc12` (centres undefined), the results for the concentration for half-maximal inhibition (IC50) in series [1], in [2] and in [4] were 32 nM, more than 5000 nM and 1240 nM, respectively.
